In article PMC9684503 (Communications Biology, 2022):
Counter-ions that a name gives are not always drawn. Like-named read-outs stand apart in the source and are kept apart here.

Assays:
[1] = target: rat VMAT2 (Rattus norvegicus, UniProt Q01827); test: FFN206 uptake assay in transfected Hek293 cells
[2] = target: T1, rat VMAT2-His (Rattus norvegicus, UniProt Q01827); test: Differential scanning fluorimetry (DSF) with CPM dye: change of melting temperature of purified VMAT2; format: binding
T1 construct: The ORF of rat VMAT2 was subcloned into a pFastBac vector; His; made in house; host or cells: Sf9 insect cells (baculovirus)
Protocol: To screen purified VMAT2 by DSF we expressed the rat VMAT2 protein, as VMAT2-His, in SF9 insect cells using the baculovirus expression system. The transporter was solubilized and purified in n-Dodecyl-β-D-maltoside (DDM)/cholesterol hemisuccinate (CHS) micelles by immobilized metal affinity chromatography (IMAC) and size exclusion chromatography (SEC). […] Screening was performed using DSF and the thiol-reactive dye 7-diethylamino-3-(4-maleimidophenyl)-4-methylcoumarin (CPM), an approach that monitors changes to the protein melting temperature (Tm) upon compound binding. Using CPM or other dyes, DSF-based assays have successfully been used in molecular-based screenings[34],[35]. […] DSF screening was performed in 384 well plates using the thiol-sensing dye 7-diethylamino-3-(4-maleimidophenyl)-4-methylcoumarin (CPM) (Merck). […] Protein melting curves were determined using a LightCycler 480 ii RT-PCR system (Roche), with a temperature ramp increasing from 25 to 95 °C at a rate of 2 °C/min. Data analysis was performed using an in-house software that automatically determines the protein midpoint melting temperature (Tm) based on the second derivative of the melting curves or using the HTSDSF explorer as described in ref. [58]. […] 6 μl of this mix was dispensed to each well of 384 well plates using a Multidrop™ Combi Reagent Dispenser (Thermo Scientific). […] All initial hits were then subjected to an initial validation in triplicates with a compound concentration of 200 μM and a ΔTm > 5× the standard deviation (SD) cut off. […] Processing of the data from the primary screening and the concentration-dependent validation was performed as reported.

[3] = target: T2, VMAT2 (Rattus norvegicus, UniProt Q01827); conditions: 50 µM
Protocol: (§1) We preincubated cells expressing VMAT2 with 50 μM compounds and measured [^3H]-DTBZ binding (5 nM) to the sample (Fig. 3a). […] Hek293 cells were grown and transfected with pcDNA3.1 VMAT2-His as described above. Two days after transfection, cells were harvested, washed and transferred to 96 well MultiScreen FB filter plates (Millipore). […] Cells were washed 3 times with ice cold PBS and 50 µl Ultima Gold LLL (PerkinElmer) was added to each well. […] After a 20 min incubation at 37 °C, cells were washed and [^3H] scintillation counting was performed as described above.

[4] = target: T2, VMAT2; test: [3H]-DTBZ competition assay in Hek293 cells expressing VMAT2; conditions: 50 μM compound;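 note: HEK293 cells transfected with VMAT2, pretreated 30 min with compound, then given 5 nM [3H]-DTBZ for 20 min at 37 °C, bound label read by scintillation counting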
Protocol: as §1

[5] = Table 1, DSF screening, mean ± SD of triplicates
[6] = Table S2 dose response, compound 0,12 µM, read-out: ΔTm
[7] = Table S2 dose response, compound 0,37 µM, read-out: ΔTm
[8] = Table S2 dose response, compound 10 µM, read-out: ΔTm
[9] = Table S2 dose response, compound 30 µM, read-out: ΔTm
[10] = Table S2 dose response, compound 90 µM, read-out: ΔTm
[11] = Table S2 dose response, compound 270 µM, read-out: ΔTm
[12] = Table S2 dose response, compound 1,11 µM, read-out: ΔTm
[13] = Table S2 dose response, compound 3,33 µM, read-out: ΔTm

T1 sequence (Q01827 whole entry): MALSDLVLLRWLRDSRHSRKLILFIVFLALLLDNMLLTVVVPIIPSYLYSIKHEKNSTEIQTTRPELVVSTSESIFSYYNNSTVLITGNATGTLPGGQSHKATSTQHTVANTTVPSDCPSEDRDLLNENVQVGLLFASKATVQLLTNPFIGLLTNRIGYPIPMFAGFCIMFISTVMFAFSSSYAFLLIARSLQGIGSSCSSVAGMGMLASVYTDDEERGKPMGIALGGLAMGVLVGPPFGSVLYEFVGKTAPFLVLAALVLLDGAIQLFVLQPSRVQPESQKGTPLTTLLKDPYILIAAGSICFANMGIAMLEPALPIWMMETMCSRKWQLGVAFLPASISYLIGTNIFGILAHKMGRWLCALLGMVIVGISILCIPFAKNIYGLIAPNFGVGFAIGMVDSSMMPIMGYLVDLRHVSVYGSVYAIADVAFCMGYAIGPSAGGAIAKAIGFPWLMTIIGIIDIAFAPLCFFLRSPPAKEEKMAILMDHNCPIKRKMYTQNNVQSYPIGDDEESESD
Chain of rat VMAT2 (Q01827 whole entry): as above
T2 sequence (Q01827 whole entry): as above

SMILES	IC50 [1]	ΔTm [2, 5]	ΔTm at 10 µM [2, 8]	ΔTm at 30 µM [2, 9]	ΔTm at 90 µM [2, 10]	ΔTm at 270 µM [2, 11]	also measured
CCCNCC(O)COc1ccccc1C(=O)CCc1ccccc1 (stereo not drawn) [Propafenone, Propafenone hydrochloride]	–	4.53 ± 0.18 oC	1.65 °C	2.63 °C	3.49 °C	4.45 °C	ΔTm at 37 µM [2, 7]: 0.99 °C; ΔTm [2, 12]: 1.22 °C; ΔTm [2, 13]: 1.22 °C; activity [3]: 60.7 ± 20.8%; effect on [3H]-DTBZ binding compared with DMSO control (one-way ANOVA, p < 0.001) [4]: statistically significantly effect
CN(C)CCCN1c2ccccc2Sc2ccc(C(F)(F)F)cc21 [Triflupromazine hydrochloride]	–	–	–	–	–	–	ΔTm [2]: -4,15 ± 0, 03 oC; ΔTm at 10 µM ([2]; read-out: ΔTm): -0.1 °C; ΔTm at 30 µM ([2]; read-out: ΔTm): -0.1 °C; ΔTm at 90 µM ([2]; read-out: ΔTm): -0.84 °C; ΔTm at 270 µM ([2]; read-out: ΔTm): -2.21 °C
Clc1ccc(Cn2c(CN3CCCC3)nc3ccccc32)cc1 [Clemizole hydrochloride]	–	–	0.33 °C	0.57 °C	0.31 °C	-0.69 °C	ΔTm ([2]; Table S1, primary hits, average change in melting temperature vs controls, triplicates): -1,46 ± 0,10 oC
CN[C@@H]1C[C@@H](c2ccc(Cl)c(Cl)c2)c2ccccc21 [Indatraline hydrochloride]	–	–	-0.37 °C	-0.63 °C	-1.01 °C	–	ΔTm at 11 µM ([2]; read-out: ΔTm): -0.28 °C; ΔTm at 12 µM ([2]; read-out: ΔTm): 0.24 °C; ΔTm at 33 µM ([2]; read-out: ΔTm): -0.41 °C; ΔTm at 37 µM ([2]; read-out: ΔTm): 0.04 °C; ΔTm at 270 µM ([2]; read-out: ΔTm): -2.11 °C
CC(NCCC(c1ccccc1)c1ccccc1)c1ccccc1 (stereo not drawn) [Fendiline hydrochloride]	–	–	-0.22 °C	-0.24 °C	-1.16 °C	-3.27 °C	–
C1CCC(C(CC2CCCCN2)C2CCCCC2)CC1 (stereo not drawn) [Perhexiline maleate]	–	–	-0.18 °C	-0.27 °C	-1.17 °C	-3.23 °C	–
COC(=O)[C@H]1[C@H]2C[C@@H]3c4[nH]c5cc(OC)ccc5c4CCN3C[C@H]2C[C@@H](OC(=O)c2cc(OC)c(OC)c(OC)c2)[C@@H]1OC [Reserpine]	–	–	–	–	–	–	ΔTm at 10 µM ([2]; read-out: ΔTm): 13.5 °C; ΔTm at 11 µM ([2]; read-out: ΔTm): 13.6 °C; ΔTm at 12 µM ([2]; read-out: ΔTm): 13.7 °C; ΔTm at 30 µM ([2]; read-out: ΔTm): 13.9 °C; ΔTm at 33 µM ([2]; read-out: ΔTm): 13.6 °C; ΔTm at 37 µM ([2]; read-out: ΔTm): 13.7 °C; ΔTm at 90 µM ([2]; read-out: ΔTm): 14 °C; ΔTm at 270 µM ([2]; read-out: ΔTm): 13.7 °C
CN1CCC(=C2c3ccccc3Sc3ccccc32)CC1 [Pimethixene maleate]	–	–	0.15 °C	-0.18 °C	-0.14 °C	-1.59 °C	–

Further lines, with some results ahead:

IC50 [1]	ΔTm [2, 5]	ΔTm at 10 µM [2, 8]	ΔTm at 30 µM [2, 9]	ΔTm at 90 µM [2, 10]	ΔTm at 270 µM [2, 11]	SMILES	also measured
6.55 ± 3.49 µM	–	–	–	–	–	C=CCOc1ccccc1OCC(O)CNC(C)C (stereo not drawn) [Oxprenolol, Oxprenolol hydrochloride]	–
3.17 ± 0.895 µM	1.49 ± 0.05 oC	–	–	–	–	CC(C)NCC(O)COc1ccc(COCCOC(C)C)cc1 (stereo not drawn) [Bisoprolol]	–
6.85 ± 3.62 µM	1.98 ± 0.15 oC	0.12 °C	0.01 °C	0.2 °C	1.16 °C	CC(C)NCC(O)COc1ccc(CCOCC2CC2)cc1 (stereo not drawn) [Betaxolol, Betaxolol hydrochloride]	ΔTm at 12 µM [2, 6]: -0.32 °C; ΔTm at 37 µM [2, 7]: -0.34 °C; ΔTm at 11 µM [2, 12]: 0.01 °C; ΔTm at 33 µM [2, 13]: 0.01 °C
> 10 µM	2.14 ± 0.05 oC	0.2 °C	0.31 °C	0.33 °C	0.9 °C	CCCC(=O)Nc1ccc(OCC(O)CNC(C)C)c(C(C)=O)c1 (stereo not drawn) [Acebutolol, Acebutolol hydrochloride]	ΔTm at 12 µM [2, 6]: 0.2 °C; ΔTm at 37 µM [2, 7]: 0.03 °C; ΔTm at 11 µM [2, 12]: 0.3 °C; ΔTm at 33 µM [2, 13]: 0.03 °C; IC50 ([1]; read-out: IC50, rat VMAT2, Table S1, substrate uptake assays in transfected Hek293 cells): < 10 µM
